Assay results reported in article PMC11087268, “A folate inhibitor exploits metabolic differences in Pseudomonas aeruginosa for narrow-spectrum targeting” (Nature Microbiology, 2024).
Values joined by “and” are separate entries in the source; they are usually repeats but may differ in a detail not shown here. Identical values can stand only once. Like-named read-outs stand apart in the source and are kept apart here.

Experiments:
PA14 = test: Checkerboard assay fluorofolin / sulfamethoxazole; type: cell-based, Pseudomonas aeruginosa; settings: PA14, Fluorofolin 0 ug/mL
Experimental: Cells were seeded in a similar manner as described above for MIC calculations. […] Fractional inhibitory concentrations (FICs) were calculated as [[…], where [fluorofolin] and [SMX] are the concentrations of compounds in a given well, which were divided by the concentration of drug at the MIC for each compound.

P. aeruginosa PA14 [1] = test: In vivo PA14 murine thigh infection; settings: neutropenic CD-1 mice, 24 h post infection; fluorofolin 25 mg kg^−1 subcutaneous and/or SMX 100 mg kg^−1 intraperitoneal at 1 and 12 h; one value per mouse
Description: For P. aeruginosa thigh infection model and maximum tolerated dose (MTD) studies, care and handling of female 5–6-week-old CD-1 conformed to Institutional Animal Care and Use Committee (IACUC) policies as carried out at the University of North Texas Health Science Center (Fort Worth, Texas) under UNTHSC IACUC-approved protocol nos. IACUC-2021-0003 and IACUC-2020-0039. Rodents were fed either base chow (Envigo) or base diet supplemented with 1.8 g kg^−1 thymidine (Sigma T9250) starting at 2 days before infection. All procedures were conducted in accordance with the UNTHSC IACUC-approved protocol. Animals were housed in rooms undergoing 10–15 air changes per hour. Air provided to the animal rooms was controlled for temperature and humidity and is fully monitored 24 h a day. Air pressure was balanced according to room use. Lighting was controlled in individual rooms by automatic timers with a standard 12 h on, 12 h off cycle.
Female 5–6-week-old CD-1 mice were rendered neutropenic by intraperitoneal cyclophosphamide treatment (Cytoxan) before this study. On day 0, mice were infected intramuscularly with 5.33 log c.f.u. per thigh PA14. Mice were treated subcutaneously with fluorofolin at 1 and 12 h post infection. For co-treatment, mice were treated with SMX intraperitoneally at 1 and 12 h post infection. […] In vivo efficacy was evaluated by the UNTHSC.

P. aeruginosa = test: MIC of known DHFR inhibitors against P. aeruginosa; type: cell-based, Pseudomonas aeruginosa; settings: strain not named
sheep red blood cells = test: Haemolysis; type: cell-based; settings: 1 h, vs Triton X-100 100% lysis
Experimental: (§1) Samples were treated at 37 °C with shaking for 1 h and then centrifuged. Supernatants were collected and absorbances were measured at 405 nm in a Tecan InfiniteM200 Pro microplate reader.

[2] = tested on: Pseudomonas aeruginosa PA14; test: MIC against P. aeruginosa PA14 in LB broth; type: cell-based
Experimental: (§2) Overnight cultures were diluted 1:150 in LB broth and added to a 96-well plate. Antibiotics were serially diluted 1:2 and added to columns of the 96-well plate and grown at 37 °C with continuous shaking. Cell growth was measured using optical density at 600 nm (OD600). MIC assays were performed in either BioTek Synergy HT or Tecan InfiniteM200 Pro microplate readers.

[3] = tested on: P. aeruginosa PA14 mexA transposon mutant; test: microbe, parasite or virus in culture; type: cell-based; settings: Pseudomonas aeruginosa
Experimental: as §2
(§3) P. aeruginosa PA14 transposon mutants were generated by the Ausubel Lab (https://pa14.mgh.harvard.edu/cgi-bin/pa14/home.cgi)[67]. The MICs of fluorofolin and TMP against strains with disrupted MexA, MexB and OprM were determined as above and compared to the parental strain. As transposon mutants in MexB were represented twice in this collection, the MIC was confirmed across both mutant strains.

[4] = tested on: P. aeruginosa PA14 mexB transposon mutant; test: microbe, parasite or virus in culture; type: cell-based; settings: Pseudomonas aeruginosa
Experimental: as §2, §3

[5] = tested on: P. aeruginosa PA14 oprM transposon mutant; test: microbe, parasite or virus in culture; type: cell-based; settings: Pseudomonas aeruginosa
Experimental: as §2, §3

P. aeruginosa PA14 [6] = test: Colony-forming units counting after antibiotic treatment; type: cell-based, Pseudomonas aeruginosa; settings: 2× MIC (fluorofolin 6.2, TMP 250, polymixin B 4 μg ml^−1)
Experimental: P. aeruginosa PA14 overnight cultures were diluted 1:100 and grown to exponential phase (OD600 = 0.4–0.6). Cultures were diluted 1:10 and treated with antibiotic. At each time point, 150 μl of culture was removed, serial diluted 1:10 six times and plated onto LB agar plates. Plates were grown overnight at 37 °C, after which visible colonies were counted. C.f.u.s ml^−1 are reported from dilutions in which ~10–100 single colonies were visible.

[7] = tested on: P. aeruginosa PA14 folate metabolism (dUMP, AICAR, GAR); test: Metabolomics (LC–MS) of treated PA14; type: cell-based, Pseudomonas aeruginosa; settings: PA14, 15 min
Experimental: Metabolites were extracted by vacuum filtering 15 ml of treated cells using 0.45 μm HNWP Millipore nylon membranes and placing the filters into an ice-cold quenching solution of 40:40:20 methanol:acetonitrile:H2O. Extracts were kept on dry ice for 1 h and centrifuged at 16,000 g for 1 h at 4 °C. The supernatant was kept at -80 °C until mass spectrometry analysis. Liquid chromatography-mass spectrometry (LC-MS) analysis of metabolites was performed on an Orbitrap Exploris 240 mass spectrometer coupled with hydrophilic interaction liquid chromatography (HILIC)[68]. […] Waters 196006724), with a gradient of solvent A (95 vol. % H2O, 5 vol. % acetonitrile, with 20 mM ammonium acetate and 20 mM ammonium hydroxide, pH 9.4) and solvent B (acetonitrile). Flow rate was 0.15 ml min^-1 and column temperature was set at 25 °C. […] Raw mass spectrometry data were converted to mzXML format by MSConvert (ProteoWizard). Pick-peaking was done on […].0.8.0, Elucidata).

P. aeruginosa PA14 [8] = type: cell-based, Pseudomonas aeruginosa; settings: PA14, 0.25 h
Experimental: Overnight P. aeruginosa PA14 or E. coli lptD4213 cultures were diluted 1:100 and grown to mid exponential phase at 37 °C. Cultures were diluted 1:10 into PBS and treated with antibiotics for 15 min. P. aeruginosa PA14 was stained with TO-PRO-3 (640 nm excitation, 670/30 nm emission) to measure cell membrane integrity. E. coli lptD4213 was stained with both TO-PRO-3 and DiOC2(3) (ThermoFisher B34950) to measure cell membrane integrity and membrane potential. DiOC2(3) was evaluated as a ratio of green (488 nm excitation, 525/50 nm emission) to red (488 nm excitation, 610/20 nm emission)[66]. The LSRII flow cytometer (BD Biosciences) at the Flow Cytometry Resource Facility, Princeton University, was used to measure the fluorescent intensities of both dyes in response to antibiotic treatment. 100,000 events were recorded for each data file. Gates for permeabilization were determined using polymixin B (Sigma-Aldrich P1004) and untreated controls. Gates for depolarization were determined using carbonyl cyanide m-chlorophenyl hydrazone (CCCP) as a positive control. Data were analysed using FlowJo v.10 software.

Haemolysis = type: cell-based, sheep; settings: sheep, defibrinated sheep red blood cells, 1 h, vs Triton X-100 100% lysis
Experimental: as §1

[9] = 2× MIC (fluorofolin 6.3, TMP 250 μg ml^−1), one value per replicate

Compound: Cc1cc(NS(=O)(=O)c2ccc(N)cc2)no1 [SMX, Sulfamethoxazole, reference compound]
- FIC index (PA14; SMX 625.00 ug/mL): 1
- FIC index (PA14; SMX 1250.00 ug/mL): 2
- PA14 load in thigh (P. aeruginosa PA14 [1]): 8.8 log 10(CFU/ mouse) and 8.33 log 10(CFU/ mouse) and 8.57 log 10(CFU/ mouse) and 7.94 log 10(CFU/ mouse)

Compound: Nc1nc(N)c2c(ccc3c2ccn3Cc2ccc(-c3ccccc3)cc2)n1 [IRS-16]
- MIC (P. aeruginosa): > 50 µg/mL
- % Hemolysis, Mean (sheep red blood cells; 0.78125 ug/mL): 6.068%
- % Hemolysis, Mean (sheep red blood cells; 1.5625 ug/mL): 12.9642%
- % Hemolysis, Mean (sheep red blood cells; 3.125 ug/mL): 26.947%
- % Hemolysis, Mean (sheep red blood cells; 6.25 ug/mL): 25.0196%
- % Hemolysis, Mean (sheep red blood cells; 12.5 ug/mL): 26.9567%
- % Hemolysis, Mean (sheep red blood cells; 25 ug/mL): 30.487%
- % Hemolysis, Mean (sheep red blood cells; 50 ug/mL): 39.1325%

Compound: COc1cc(Cc2cnc(N)nc2N)cc(OC)c1OC [Trimethoprim, trimethoprim, reference compound]
- MIC ([2]; P. aeruginosa PA14): 125 µg/mL
- MIC ([2]; Pseudomonas aeruginosa, Wildtype PA14, control for each drug stock, read-out: MIC): 125 µg/mL
- MIC [3]: 50 µg/mL
- MIC [4]: 25 µg/mL
- MIC [5]: 25 µg/mL
- PA14 CFU/mL, Mean (P. aeruginosa PA14 [6]; Time 0 h): 197000 CFU/mL
- PA14 CFU/mL, Mean (P. aeruginosa PA14 [6]; Time 1 h): 178000 CFU/mL
- PA14 CFU/mL, Mean (P. aeruginosa PA14 [6]; Time 2 h): 187000 CFU/mL
- PA14 CFU/mL, Mean (P. aeruginosa PA14 [6]; Time 4 h): 338889 CFU/mL
- change of AICAR and dUMP ([7]; 2× MIC): significant upregulation
- Normalized Ion Counts AICAR [7, 9]: 1099947 and 1907694 and 151411
- Normalized Ion Counts GAR [7, 9]: 163607 and 121038 and 24881.8
- Normalized Ion Counts dUMP [7, 9]: 2000000 and 3000000
- Permeabilized (TO-PRO-3 gate) (P. aeruginosa PA14 [8]): 0.42
- hemolysis at 1 h, 0.78125 ug/mL (Haemolysis; 0.78125 ug/mL): 0.423%
- hemolysis at 1 h, 1.5625 ug/mL (Haemolysis; 1.5625 ug/mL): 0.123%
- hemolysis at 1 h, 3.125 ug/mL (Haemolysis; 3.125 ug/mL): 0.0766%
- hemolysis at 1 h, 6.25 ug/mL (Haemolysis; 6.25 ug/mL): 1.27%
- hemolysis at 1 h, 12.5 ug/mL (Haemolysis; 12.5 ug/mL): 0.258%
- hemolysis at 1 h, 25 ug/mL (Haemolysis; 25 ug/mL): 0.606%
- hemolysis at 1 h, 50 ug/mL (Haemolysis; 50 ug/mL): 4.08%
